The values below come from PubChem BioAssay (NCI).

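Protocol summary: plate cells (96-well), add compound at 5 concentrations, incubate 48 h, interpolate endpoints linearly. TGI is the concentration that stops growth completely.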

Among the test systems are HL-60(TB) leukemia; A498 renal; UACC-62 melanoma; NCI-H226 lung; OVCAR-4 ovarian; SK-MEL-28 melanoma; UO-31 renal; NCI-H460 lung; PC-3 prostate; A549 NSCLC; IGROV1 ovarian; HS 578T breast; 786-0 renal.
What all share (assay): DTP human tumour cell line panel, 48 h

For orientation: TGI means the concentration at which net growth stops. A high value points to less potent growth arrest.

In the case of `O=C(O)c1ccc(Nc2ccnc3cc(Cl)ccc23)cc1O`, the TGI in the test on HL-60(TB) leukemia, in the test with A498 renal, in the test on UACC-62 melanoma, in the test on NCI-H226 lung, in the test with OVCAR-4 ovarian and in the test on SK-MEL-28 melanoma was > 100 µM each time. The TGI with UO-31 renal, in the test with NCI-H460 lung, in the test on PC-3 prostate, with A549 NSCLC, in the test on IGROV1 ovarian and in the test on HS 578T breast was > 100 µM in each case. In addition, the TGI in the test with 786-0 renal is > 100 µM.
For `CCCCCCCC/C=C\CCCCCCCCNc1ccn(C2OC(COP(=O)(O)OC3CC(n4cc(F)c(=O)[nH]c4=O)OC3CO)C(O)C2O)c(=O)n1` (centres undefined), the TGI is 45.7 µM in the test with HL-60(TB) leukemia; > 53.2 µM with A498 renal; > 95 µM with UACC-62 melanoma; > 100 µM in the test with NCI-H226 lung; > 100 µM with OVCAR-4 ovarian; > 100 µM in the test with SK-MEL-28 melanoma. In addition, the TGI in the test with UO-31 renal, in the test with NCI-H460 lung, in the test on PC-3 prostate, in the test on A549 NSCLC, in the test on IGROV1 ovarian and with HS 578T breast was > 100 µM throughout. Moreover, in the test with 786-0 renal, the TGI is > 100 µM.
On to `NCC(=O)C(O)C(O)C(O)CO` (centres undefined), for which the TGI with HL-60(TB) leukemia, with A498 renal, in the test on UACC-62 melanoma, with NCI-H226 lung, in the test with OVCAR-4 ovarian and in the test on SK-MEL-28 melanoma was > 100 µM each time. In addition, the TGI with UO-31 renal, in the test with NCI-H460 lung, in the test with PC-3 prostate, with A549 NSCLC, in the test with IGROV1 ovarian and in the test with HS 578T breast was > 100 µM each time. The total growth inhibition concentration (TGI) in the test with 786-0 renal is > 100 µM.
As for `CCOC(=O)c1ccc2c(c1)nc1n2C(c2c(F)cccc2F)SC1` (centres undefined), the TGI was > 100 µM in the test on HL-60(TB) leukemia; > 100 µM in the test with A498 renal; > 100 µM with UACC-62 melanoma; 34.6 µM in the test with NCI-H226 lung; > 100 µM in the test on OVCAR-4 ovarian; > 100 µM in the test with SK-MEL-28 melanoma. The TGI in the test with UO-31 renal is > 100 µM; in the test with NCI-H460 lung it was > 100 µM; with PC-3 prostate it was 71.2 µM; with A549 NSCLC, > 100 µM; in the test with IGROV1 ovarian, 42 µM; in the test on HS 578T breast, > 100 µM. In addition, the TGI in the test with 786-0 renal amounted to 67.8 µM.
Turning to `CCOC(=O)CSc1nc(-c2ccc(OC)cc2)c(C#N)c(=O)[nH]1`, the TGI in the test on HL-60(TB) leukemia, in the test with A498 renal, in the test on UACC-62 melanoma, in the test with NCI-H226 lung, with OVCAR-4 ovarian and with SK-MEL-28 melanoma was > 100 µM in each case. Also, the TGI in the test with UO-31 renal, with NCI-H460 lung, with PC-3 prostate, in the test with A549 NSCLC, with IGROV1 ovarian and with HS 578T breast was > 100 µM throughout. The TGI with 786-0 renal is > 100 µM.
Turning to `Cc1nnc(Nc2ccc(Cl)cc2)o1`, the TGI in the test on HL-60(TB) leukemia, in the test with A498 renal, in the test with UACC-62 melanoma, with NCI-H226 lung, in the test with OVCAR-4 ovarian and in the test on SK-MEL-28 melanoma was > 10 µM in each case. In addition, the TGI in the test on UO-31 renal, with NCI-H460 lung, in the test on PC-3 prostate, in the test with A549 NSCLC, with IGROV1 ovarian and in the test with HS 578T breast was > 10 µM in each case. Further, in the test with 786-0 renal, the TGI was > 10 µM.
As to `CCOC(=O)Cn1c(=O)c2nc(SC)sc2n(-c2ccc(C)cc2)c1=S`, the TGI was > 100 µM with HL-60(TB) leukemia; > 100 µM in the test on A498 renal; > 100 µM in the test on UACC-62 melanoma; 69.6 µM in the test with NCI-H226 lung; 35.2 µM in the test on OVCAR-4 ovarian; > 100 µM in the test on SK-MEL-28 melanoma. For the same compound, the TGI in the test on UO-31 renal was > 100 µM; in the test on NCI-H460 lung it was > 100 µM; with PC-3 prostate, > 100 µM; with A549 NSCLC, > 100 µM; in the test with IGROV1 ovarian it was > 100 µM; in the test with HS 578T breast, > 66.5 µM. Also, the TGI in the test on 786-0 renal was found to be 49.1 µM.
`C[C@]12CC[C@@H]3c4ccc(OC(=O)c5ccccc5)cc4CC[C@H]3[C@@H]1CCC2OC(=O)c1cccc2c(=O)c3ccccc3[nH]c12` (some centres undefined): the TGI in the test with HL-60(TB) leukemia was > 100 µM; in the test with A498 renal it was 64 µM; in the test on UACC-62 melanoma, 31.3 µM; in the test on NCI-H226 lung, 39.6 µM; in the test on OVCAR-4 ovarian, 33.8 µM; in the test with SK-MEL-28 melanoma, 30.6 µM. The TGI with UO-31 renal was 68.6 µM; in the test with NCI-H460 lung, 32.2 µM; with PC-3 prostate, 29.8 µM; with A549 NSCLC, 31.5 µM; in the test on IGROV1 ovarian, 33.3 µM; in the test on HS 578T breast, 38.5 µM. In the test with 786-0 renal, this compound registered a TGI of 31.7 µM.
